# According to US20090318351A1, “METHOD OF TREATING ACUTE ST-ELEVATION MYOCARDIAL INFARCTION WITH A DELTA PKC ANTAGONIST” (priority 2008, published 2009):
# Assay: Plasma stability of capped peptides (KAI-9706 modified at amino and carboxy termini)
# Conditions: rat
# Method: Plasma stability of capped peptides was compared. KAI-9706 was modified step-wise at its amino and carboxy termini. Plasma stability as measured by the percent of peptide composition remaining after 15 minutes.
row,SMILES,remaining at 0.25 h
1,CC[C@H](C)[C@H](NC(=O)[C@@H]1CCCN1C(=O)[C@H](C)NC(=O)[C@H](CC(=O)O)NC(=O)[C@H](Cc1c[nH]cn1)NC(=O)[C@H](CSSC[C@H](NC(C)=O)C(=O)N[C@@H](Cc1ccc(O)cc1)C(=O)NCC(=O)N[C@@H](CCCNC(=N)N)C(=O)N[C@@H](CCCCN)C(=O)N[C@@H](CCCCN)C(=O)N[C@@H](CCCNC(=N)N)C(=O)N[C@@H](CCCNC(=N)N)C(=O)N[C@@H](CCC(N)=O)C(=O)N[C@@H](CCCNC(=N)N)C(=O)N[C@@H](CCCNC(=N)N)C(=O)N[C@@H](CCCNC(=N)N)C(N)=O)NC(C)=O)C(=O)NCC(=O)N[C@@H](Cc1ccc(O)cc1)C(=O)N[C@@H](CC(=O)O)C(=O)O [KAI-9706 carrier Ac—NH2 cargo Ac—OH],93%
2,CC[C@H](C)[C@H](NC(=O)[C@@H]1CCCN1C(=O)[C@H](C)NC(=O)[C@H](CC(=O)O)NC(=O)[C@H](Cc1c[nH]cn1)NC(=O)[C@H](CSSC[C@H](N)C(=O)N[C@@H](Cc1ccc(O)cc1)C(=O)NCC(=O)N[C@@H](CCCNC(=N)N)C(=O)N[C@@H](CCCCN)C(=O)N[C@@H](CCCCN)C(=O)N[C@@H](CCCNC(=N)N)C(=O)N[C@@H](CCCNC(=N)N)C(=O)N[C@@H](CCC(N)=O)C(=O)N[C@@H](CCCNC(=N)N)C(=O)N[C@@H](CCCNC(=N)N)C(=O)N[C@@H](CCCNC(=N)N)C(=O)O)NC(C)=O)C(=O)NCC(=O)N[C@@H](Cc1ccc(O)cc1)C(=O)N[C@@H](CC(=O)O)C(N)=O [KAI-9706 carrier H—OH cargo Ac—NH2],0%
3,CC[C@H](C)[C@H](NC(=O)[C@@H]1CCCN1C(=O)[C@H](C)NC(=O)[C@H](CC(=O)O)NC(=O)[C@H](Cc1c[nH]cn1)NC(=O)[C@H](CSSC[C@H](NC(C)=O)C(=O)N[C@@H](Cc1ccc(O)cc1)C(=O)NCC(=O)N[C@@H](CCCNC(=N)N)C(=O)N[C@@H](CCCCN)C(=O)N[C@@H](CCCCN)C(=O)N[C@@H](CCCNC(=N)N)C(=O)N[C@@H](CCCNC(=N)N)C(=O)N[C@@H](CCC(N)=O)C(=O)N[C@@H](CCCNC(=N)N)C(=O)N[C@@H](CCCNC(=N)N)C(=O)N[C@@H](CCCNC(=N)N)C(N)=O)NC(C)=O)C(=O)NCC(=O)N[C@@H](Cc1ccc(O)cc1)C(=O)N[C@@H](CC(=O)O)C(N)=O [KAI-9706 carrier Ac—NH2 cargo Ac—NH2],90%
4,CC[C@H](C)[C@H](NC(=O)[C@@H]1CCCN1C(=O)[C@H](C)NC(=O)[C@H](CC(=O)O)NC(=O)[C@H](Cc1c[nH]cn1)NC(=O)[C@@H](N)CSSC[C@H](NC(C)=O)C(=O)N[C@@H](Cc1ccc(O)cc1)C(=O)NCC(=O)N[C@@H](CCCNC(=N)N)C(=O)N[C@@H](CCCCN)C(=O)N[C@@H](CCCCN)C(=O)N[C@@H](CCCNC(=N)N)C(=O)N[C@@H](CCCNC(=N)N)C(=O)N[C@@H](CCC(N)=O)C(=O)N[C@@H](CCCNC(=N)N)C(=O)N[C@@H](CCCNC(=N)N)C(=O)N[C@@H](CCCNC(=N)N)C(N)=O)C(=O)NCC(=O)N[C@@H](Cc1ccc(O)cc1)C(=O)N[C@@H](CC(=O)O)C(=O)O [KAI-9706 carrier Ac—NH2 cargo H—OH],92%
5,CC[C@H](C)[C@H](NC(=O)[C@@H]1CCCN1C(=O)[C@H](C)NC(=O)[C@H](CC(=O)O)NC(=O)[C@H](Cc1c[nH]cn1)NC(=O)[C@H](CSSC[C@H](N)C(=O)N[C@@H](Cc1ccc(O)cc1)C(=O)NCC(=O)N[C@@H](CCCNC(=N)N)C(=O)N[C@@H](CCCCN)C(=O)N[C@@H](CCCCN)C(=O)N[C@@H](CCCNC(=N)N)C(=O)N[C@@H](CCCNC(=N)N)C(=O)N[C@@H](CCC(N)=O)C(=O)N[C@@H](CCCNC(=N)N)C(=O)N[C@@H](CCCNC(=N)N)C(=O)N[C@@H](CCCNC(=N)N)C(N)=O)NC(C)=O)C(=O)NCC(=O)N[C@@H](Cc1ccc(O)cc1)C(=O)N[C@@H](CC(=O)O)C(N)=O [KAI-9706 carrier H—NH2 cargo Ac—NH2],51%
6,CC[C@H](C)[C@H](NC(=O)[C@@H]1CCCN1C(=O)[C@H](C)NC(=O)[C@H](CC(=O)O)NC(=O)[C@H](Cc1c[nH]cn1)NC(=O)[C@@H](N)CSSC[C@H](NC(C)=O)C(=O)N[C@@H](Cc1ccc(O)cc1)C(=O)NCC(=O)N[C@@H](CCCNC(=N)N)C(=O)N[C@@H](CCCCN)C(=O)N[C@@H](CCCCN)C(=O)N[C@@H](CCCNC(=N)N)C(=O)N[C@@H](CCCNC(=N)N)C(=O)N[C@@H](CCC(N)=O)C(=O)N[C@@H](CCCNC(=N)N)C(=O)N[C@@H](CCCNC(=N)N)C(=O)N[C@@H](CCCNC(=N)N)C(N)=O)C(=O)NCC(=O)N[C@@H](Cc1ccc(O)cc1)C(=O)N[C@@H](CC(=O)O)C(N)=O [KAI-9706 carrier Ac—NH2 cargo H—NH2],90%
7,CC[C@H](C)[C@H](NC(=O)[C@@H]1CCCN1C(=O)[C@H](C)NC(=O)[C@H](CC(=O)O)NC(=O)[C@H](Cc1c[nH]cn1)NC(=O)[C@@H](N)CSSC[C@H](N)C(=O)N[C@@H](Cc1ccc(O)cc1)C(=O)NCC(=O)N[C@@H](CCCNC(=N)N)C(=O)N[C@@H](CCCCN)C(=O)N[C@@H](CCCCN)C(=O)N[C@@H](CCCNC(=N)N)C(=O)N[C@@H](CCCNC(=N)N)C(=O)N[C@@H](CCC(N)=O)C(=O)N[C@@H](CCCNC(=N)N)C(=O)N[C@@H](CCCNC(=N)N)C(=O)N[C@@H](CCCNC(=N)N)C(=O)O)C(=O)NCC(=O)N[C@@H](Cc1ccc(O)cc1)C(=O)N[C@@H](CC(=O)O)C(N)=O [KAI-9706 carrier H—OH cargo H—NH2],0%
8,CC[C@H](C)[C@H](NC(=O)[C@@H]1CCCN1C(=O)[C@H](C)NC(=O)[C@H](CC(=O)O)NC(=O)[C@H](Cc1c[nH]cn1)NC(=O)[C@H](CSSC[C@H](NC(C)=O)C(=O)N[C@@H](Cc1ccc(O)cc1)C(=O)NCC(=O)N[C@@H](CCCNC(=N)N)C(=O)N[C@@H](CCCCN)C(=O)N[C@@H](CCCCN)C(=O)N[C@@H](CCCNC(=N)N)C(=O)N[C@@H](CCCNC(=N)N)C(=O)N[C@@H](CCC(N)=O)C(=O)N[C@@H](CCCNC(=N)N)C(=O)N[C@@H](CCCNC(=N)N)C(=O)N[C@@H](CCCNC(=N)N)C(=O)O)NC(C)=O)C(=O)NCC(=O)N[C@@H](Cc1ccc(O)cc1)C(=O)N[C@@H](CC(=O)O)C(N)=O [KAI-9706 carrier Ac—OH cargo Ac—NH2],48%
9,CC[C@H](C)[C@H](NC(=O)[C@@H]1CCCN1C(=O)[C@H](C)NC(=O)[C@H](CC(=O)O)NC(=O)[C@H](Cc1c[nH]cn1)NC(=O)[C@@H](N)CSSC[C@H](N)C(=O)N[C@@H](Cc1ccc(O)cc1)C(=O)NCC(=O)N[C@@H](CCCNC(=N)N)C(=O)N[C@@H](CCCCN)C(=O)N[C@@H](CCCCN)C(=O)N[C@@H](CCCNC(=N)N)C(=O)N[C@@H](CCCNC(=N)N)C(=O)N[C@@H](CCC(N)=O)C(=O)N[C@@H](CCCNC(=N)N)C(=O)N[C@@H](CCCNC(=N)N)C(=O)N[C@@H](CCCNC(=N)N)C(N)=O)C(=O)NCC(=O)N[C@@H](Cc1ccc(O)cc1)C(=O)N[C@@H](CC(=O)O)C(=O)O [KAI-9706 carrier H—NH2 cargo H—OH],60%
10,CC[C@H](C)[C@H](NC(=O)[C@@H]1CCCN1C(=O)[C@H](C)NC(=O)[C@H](CC(=O)O)NC(=O)[C@H](Cc1c[nH]cn1)NC(=O)[C@@H](N)CSSC[C@H](NC(C)=O)C(=O)N[C@@H](Cc1ccc(O)cc1)C(=O)NCC(=O)N[C@@H](CCCNC(=N)N)C(=O)N[C@@H](CCCCN)C(=O)N[C@@H](CCCCN)C(=O)N[C@@H](CCCNC(=N)N)C(=O)N[C@@H](CCCNC(=N)N)C(=O)N[C@@H](CCC(N)=O)C(=O)N[C@@H](CCCNC(=N)N)C(=O)N[C@@H](CCCNC(=N)N)C(=O)N[C@@H](CCCNC(=N)N)C(=O)O)C(=O)NCC(=O)N[C@@H](Cc1ccc(O)cc1)C(=O)N[C@@H](CC(=O)O)C(=O)O [KAI-9706 carrier Ac—OH cargo H—OH],57%
11,CC[C@H](C)[C@H](NC(=O)[C@@H]1CCCN1C(=O)[C@H](C)NC(=O)[C@H](CC(=O)O)NC(=O)[C@H](Cc1c[nH]cn1)NC(=O)[C@H](CSSC[C@H](N)C(=O)N[C@@H](Cc1ccc(O)cc1)C(=O)NCC(=O)N[C@@H](CCCNC(=N)N)C(=O)N[C@@H](CCCCN)C(=O)N[C@@H](CCCCN)C(=O)N[C@@H](CCCNC(=N)N)C(=O)N[C@@H](CCCNC(=N)N)C(=O)N[C@@H](CCC(N)=O)C(=O)N[C@@H](CCCNC(=N)N)C(=O)N[C@@H](CCCNC(=N)N)C(=O)N[C@@H](CCCNC(=N)N)C(=O)O)NC(C)=O)C(=O)NCC(=O)N[C@@H](Cc1ccc(O)cc1)C(=O)N[C@@H](CC(=O)O)C(=O)O [KAI-9706 carrier H—OH cargo Ac—OH],1%
